Active and inactive are the calls of the source. The calls are words filed in the database; no cut-off is given here.
Legend:
[1] = Inhibition of Escherichia coli pEK17/EK1104 ATCase catalytic subunit assessed as formation of N-carbamoyl-L-aspartate by colorimetric assay relative to carbamyl phosphate
Escherichia coli = test: Competitive inhibition of Escherichia coli pEK17/EK1104 ATCase catalytic subunit assessed as formation of N-carbamoyl-L-aspartate by colorimetric assay

| SMILES | Ki [1] [nM] | Activity (Escherichia coli) |
| --- | --- | --- |
| O=C(O)C[C@H](NC(=O)C[PH](=O)O)C(=O)O | 417 | Active |
| O=C(O)C[C@H](NC(=O)CP(=O)(O)O)C(=O)O [PALA] | 16 | Active |
| O=C(O)C[C@H](NC(=O)CP(=O)(O)CO)C(=O)O | 193 | Active |

— ChEMBL document CHEMBL1143277, “Submicromolar phosphinic inhibitors of Escherichia coli aspartate transcarbamoylase” (Bioorg Med Chem Lett, 2009)
